# Measured values reported in PubChem BioAssay AID1645848.
# Settings: buffer; pH 7.4; 6.0 h; 150.0 µM
row,SMILES,solubility kinetic [µg/mL]
1,CCOC(=O)N1CCN(C(=O)Cn2sc3nc(C)cc(C)c3c2=O)CC1,39
2,Clc1cccc(-c2ccc(-c3nnc(CCCc4ccc5cccnc5n4)o3)cc2)c1,< 1
3,CCOc1ccc(CCNC(=O)c2cc3ccccc3n2CCN2CCOCC2)cc1OCC,47.5
4,COc1cc2c(c(OC)c1OC)-c1ccc(OC)c(=O)cc1[C@@H](NC(C)=O)CC2,21
5,COc1ccccc1Nc1cnc2ccc(-c3ccc(OC)c(OC)c3)nn12,< 1
6,CN1C(=O)CN=C(c2ccccc2Cl)c2cc(Cl)ccc21,> 47
7,CC1=C(C(=O)Nc2nnc(-c3ccccc3)s2)C(c2[nH]ncc2Cl)N=C(Nc2nc3ccccc3o2)N1 (centres undefined),< 1
8,Cc1ccc(NC2=C(c3ccc(C(F)(F)F)cc3)C(=O)c3ccccc32)cc1F,< 1
9,O=C(Nc1cccnc1)c1cccs1,> 30
10,Cn1nnnc1Sc1ncnc2scc(-c3ccccc3F)c12,1.2
11,O=C(N/N=C/c1ccc(Sc2ccccn2)o1)c1ccncc1,> 48
12,O=C(c1ccccc1)N1CCN(c2nc(-c3ccc(Br)cc3)cs2)CC1,< 1
13,CC(/C=C/C(=O)NO)=C\[C@@H](C)C(=O)c1ccc(N(C)C)cc1,> 45
14,COc1ccc(-c2ccc3ncc4c(c3c2)n(-c2ccc(N3CCNCC3)c(C(F)(F)F)c2)c(=O)n4C)cn1,< 1
15,Cc1ccc(S(=O)(=O)Nc2cccnc2C(=O)Nc2nc(-c3ccccc3)cs2)cc1,< 1
16,CC(C)(C)n1nc(-c2ccc(Cl)cc2)c2c(N)ncnc21,< 1
17,C=CCON=C(C[C@H]1O[C@@H]2O[C@]3(C)CC[C@@H]4[C@H](C)CC[C@@H]([C@H]1C)[C@@]24OO3)[C@H]1O[C@@H]2O[C@]3(C)CC[C@H]4[C@H](C)CC[C@@H]([C@@H]1C)[C@@]24OO3,26.6
18,Cc1ccc(S(=O)(=O)Nc2cc(Br)ccc2C(=O)Nc2nc(-c3ccccc3)cs2)cc1,< 1
19,CC(C)(C)CN1CCNc2cc(Nc3ccccc3)ncc2C1,38.5
20,Nc1c(C(=O)Nc2ccc(F)cc2)sc2nc(-c3cccs3)cc(C(F)(F)F)c12,< 1

row,SMILES,solubility kinetic [µg/mL]
1,O=C(Nc1ncc(Cc2ccc(C(F)(F)F)cc2)s1)c1cnc(-c2ccccc2)s1,< 1
2,CC(C)c1cc(C(=O)N2CC[C@@H](NC(=O)C3CC3)C2)n[nH]1,> 43
3,C=C1c2cccc(O)c2C(O)=C2C(=O)[C@]3(O)C(O)=C(C(N)=O)C(=O)[C@@H](N(C)C)[C@@H]3[C@@H](O)[C@H]12,> 65
4,COc1cccc(NCCC2(c3ccccc3)CC(C)(C)OC(C)(C)C2)c1,< 1
5,CN(Cc1ccccc1)C(=O)c1ccc(S(=O)(=O)Nc2ccccc2)cc1,22.5
6,O=C(CSc1ccccc1)Nc1nnc(COc2ccc(Cl)cc2)s1,< 1
7,O=C(Nc1ccc(C(=O)N2CCCC2)cc1)c1ccccc1F,> 46
8,Cn1c2ccccc2c2c3c(c4c5ccccc5n(CCC#N)c4c21)CNC3=O,< 1
9,Nc1ncnc2c1C(=O)N(c1ccc(C3CCC(CC(=O)O)CC3)cc1)CCO2 (centres undefined),> 59
10,CC(C)OC(=O)c1ccnc2cc(C(OCCN3CCCCC3)c3ccccc3Cl)sc12 (centres undefined),16.6
11,Cc1cnc(-c2ccccc2C(C)C)nc1NCC1CCN(C2COC2)CC1,> 56
12,Cc1csc2nc(-c3cccc(NC(=O)c4ccccc4Cl)c3)cn12,< 1
13,CC1=NN(c2ccc(C(=O)O)cc2)C(=O)/C1=C/c1ccc(-c2cc(C)c(C)cc2[N+](=O)[O-])o1,1.01
14,CC(C)(C)c1ccc(SC2=NS(=O)(=O)c3ccccc32)cc1,< 1
15,COc1ccc(OCc2ccc(-c3nc(C#N)c(NC(C)c4ccccc4)o3)o2)cc1 (centres undefined),< 1
16,Cc1ccc(S(=O)(=O)Nc2cnccc2C(=O)Nc2nc(-c3ccc(Cl)c(Cl)c3)cs2)cc1,0.578
17,Cc1ccc(C2=CSC(NC(=O)CSc3nncn3C)=NN2)cc1,> 53
18,Cc1cc(-c2nnc3n2CCCCC3)c(C)n1-c1ccc(Cl)cc1,25.9
19,CCNc1oc(-c2cccc3ccccc23)nc1C#N,< 1
